Columns and labels:
human orexin receptor 1 = human orexin receptor 1 (Homo sapiens (Human), UniProt O43613); experiment: Orexin antagonist activity, intracellular calcium FLIPR assay (orexin receptor 1); format: cell-based; details: RBL-2H3 cells stably expressing human orexin receptor 1; Ca2+ dye FLIPR; compound 15 minutes before orexin-A at approximately 80% maximal response; read-out: Human Orexin1R IC50
In short: (§1)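 RBL-2H3 cells stably expressing human OX1 or OX2 were loaded with Calcium 5 dye for 1 h at 37 °C. Compounds were added 15 min before orexin-A at a concentration giving ~80% maximal response, and Ca2+ fluorescence was read by FLIPR.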

human orexin receptor 2 = human orexin receptor 2 (Homo sapiens (Human), UniProt O43614); experiment: Orexin antagonist activity, intracellular calcium FLIPR assay (orexin receptor 2); format: cell-based; details: RBL-2H3 cells stably expressing human orexin receptor 2; Ca2+ dye FLIPR; compound 15 minutes before orexin-A at approximately 80% maximal response; read-out: Human Orexin2R IC50
In short: as §1

Chain of human orexin receptor 1 (O43613 whole entry): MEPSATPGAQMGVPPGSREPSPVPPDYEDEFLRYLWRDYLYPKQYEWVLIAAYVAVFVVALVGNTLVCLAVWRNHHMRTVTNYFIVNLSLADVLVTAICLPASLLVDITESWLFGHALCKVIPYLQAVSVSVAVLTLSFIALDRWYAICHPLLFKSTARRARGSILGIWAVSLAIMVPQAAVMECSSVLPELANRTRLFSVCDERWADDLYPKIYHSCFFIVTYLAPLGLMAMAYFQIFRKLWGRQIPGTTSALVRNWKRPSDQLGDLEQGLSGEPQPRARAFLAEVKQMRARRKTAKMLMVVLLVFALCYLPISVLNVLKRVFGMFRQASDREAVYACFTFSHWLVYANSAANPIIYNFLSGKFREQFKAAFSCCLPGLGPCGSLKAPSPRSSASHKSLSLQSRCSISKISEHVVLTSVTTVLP
Chain of human orexin receptor 2 (O43614 whole entry): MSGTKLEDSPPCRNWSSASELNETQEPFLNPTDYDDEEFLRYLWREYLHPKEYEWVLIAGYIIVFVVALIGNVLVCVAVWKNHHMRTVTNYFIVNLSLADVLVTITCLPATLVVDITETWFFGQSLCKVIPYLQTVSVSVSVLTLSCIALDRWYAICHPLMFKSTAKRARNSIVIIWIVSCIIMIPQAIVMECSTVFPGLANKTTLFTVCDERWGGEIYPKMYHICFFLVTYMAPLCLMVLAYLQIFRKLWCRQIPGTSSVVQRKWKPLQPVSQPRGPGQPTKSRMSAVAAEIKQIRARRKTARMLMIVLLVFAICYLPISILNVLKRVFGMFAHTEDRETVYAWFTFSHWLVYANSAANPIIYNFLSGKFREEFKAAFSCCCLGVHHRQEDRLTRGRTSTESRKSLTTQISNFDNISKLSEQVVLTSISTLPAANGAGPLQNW

| Structure (SMILES) | IC50 (human orexin receptor 1) | IC50 (human orexin receptor 2) |
| --- | --- | --- |
| COc1cccc(OC)c1C(=O)N[C@H]1CCC[C@H]1Nc1cnc2ccccc2n1 [Example 1, 2,6-Dimethoxy-N-[(1S,2R)-2-[(quinoxalin-2-yl)amino]cyclopentyl]-benzamide] | 0.84 nM | 98 nM |
| Cc1ccc(-n2nccn2)c(C(=O)NC2CCCC2Cc2ccc3ccccc3n2)c1 (single isomer, unassigned) [Example 62, 5-Methyl-N-[2-(quinolin-2-ylmethyl)cyclopentyl]-2-(2H-1,2,3-triazol-2-yl)benzamide] | > 10000 nM | > 10000 nM |
| O=C(NC1CC(F)(F)CC1Nc1nc2ccc(F)cc2s1)c1ccccc1-n1nccn1 (single isomer, unassigned) [Example 104, N-{4,4-Difluoro-2-[(6-fluoro-1,3-benzothiazol-2-yl)amino]cyclopentyl}-2-(2H-1,2,3-triazol-2-yl)benzamide] | 13 nM | 4500 nM |
| COc1cccc(OC)c1C(=O)N[C@H]1CCC[C@@H]1Nc1nc2cc(F)ccc2o1 [Example 85, N-[(1S,2S)-2-[(5-Fluoro-1,3-benzoxazol-2-yl)amino]cyclopentyl]-2,6-dimethoxybenzamide] | 23 nM | > 10000 nM |
| COc1cccc(OC)c1C(=O)N[C@H]1CCC[C@@H]1Nc1nc2ccccc2o1 [Example 9, N-[(1S,2S)-2-[(1,3-Benzoxazol-2-yl)amino]cyclopentyl]-2,6-dimethoxy-benzamide] | 99 nM | > 10000 nM |
| CCOc1ccc(C)cc1C(=O)NC1CCCC1Cc1ccc2ccccc2n1 (centres unmarked) [Example 28, 2-Ethoxy-5-methyl-N-[2-(quinolin-2-ylmethyl)cyclopentyl]-benzamide] | 140 nM | 1900 nM |
| COc1cccc(OC)c1C(=O)N[C@H]1CCC[C@@H]1N(C)c1nc2ccc(F)cc2s1 [Example 8, N-[(1S,2S)-2-[(6-Fluoro-1,3-benzothiazol-2-yl)(methyl)amino]cyclopentyl]-2,6-dimethoxybenzamide] | 35 nM | 2100 nM |
| O=C(N[C@H]1CCC[C@@H]1Nc1nc2cccnc2s1)c1ccccc1-n1nccn1 [Example 95, N-[(1S,2S)-2-({[1,3]Thiazolo[5,4-b]pyridin-2-yl}amino)cyclopentyl]-2-(2H-1,2,3-triazol-2-yl)benzamide] | 41 nM | > 10000 nM |
| O=C(N[C@H]1CCC[C@@H]1Nc1nc2c(F)cccc2s1)c1ccccc1-n1nccn1 [Example 94, N-[(1S,2S)-2-[(4-Fluoro-1,3-benzothiazol-2-yl)amino]cyclopentyl]-2-(2H-1,2,3-triazol-2-yl)benzamide] | 30 nM | > 10000 nM |
| COc1cccc(OC)c1C(=O)NC1CCCC1Cc1ccc2ccccc2n1 (centres unmarked) [Example 98, 2,6-Dimethoxy-N-[2-(quinolin-2-ylmethyl)cyclopentyl]benzamide] | 310 nM | 2100 nM |
| COc1ccc(F)cc1C(=O)N[C@H]1CCC[C@@H]1Nc1nc2ccc(F)cc2s1 [Example 53, 5-Fluoro-N-[(1S,2S)-2-[(6-fluoro-1,3-benzothiazol-2-yl)amino]cyclopentyl]-2-methoxybenzamide] | 280 nM | 3300 nM |
| CN(C(=O)c1ccccc1Cl)[C@H]1CCC[C@@H]1Nc1nc2ccc(F)cc2s1 [Example 78, 2-Chloro-N-[(1S,2S)-2-[(6-fluoro-1,3-benzothiazol-2-yl)amino]cyclopentyl]-N-methylbenzamide] | 20 nM | 2400 nM |
| O=C(N[C@H]1CCC[C@@H]1Nc1nc2ccc(F)cc2s1)c1ccccc1-n1nccn1 [Example 59, N-[(1S,2S)-2-[(6-Fluoro-1,3-benzothiazol-2-yl)amino]cyclopentyl]-2-(2H-1,2,3-triazol-2-yl)benzamide] | 11 nM | 6700 nM |
| O=C(N[C@H]1CCC[C@@H]1Nc1nc2ccccc2o1)c1ccccc1-n1nccn1 [Example 86, N-[(1S,2S)-2-[(1,3-Benzoxazol-2-yl)amino]cyclopentyl]-2-(2H-1,2,3-triazol-2-yl)benzamide] | 150 nM | > 10000 nM |
| CCOc1cccc(OCC)c1C(=O)NC1CCCC1Cc1ccc2ccccc2n1 (centres unmarked) [Example 30, 2,6-Diethoxy-N-(2-(quinolin-2-ylmethyl)cyclopentyl)benzamide] | 320 nM | 370 nM |
| O=C(N[C@H]1CCC[C@@H]1Nc1nc2ccc(F)cc2s1)c1c(Cl)cccc1-n1nccn1 [Example 71, 2-Chloro-N-[(1S,2S)-2-[(6-fluoro-1,3-benzothiazol-2-yl)amino]cyclopentyl]-6-(2H-1,2,3-triazol-2-yl)benzamide] | 24 nM | 4200 nM |

From patent publication US9493432B2, “Cyclopentylbenzamide derivatives and their use for the treatment of psychotic and cognitive disorders” (Takeda Pharmaceutical Company Limited, priority 2013, dated 2016)
